A short description of experiment [1]: Inhibition of GARFTase in human KB cells expressing RFC/FRalpha/PCFT assessed as reduction in cell growth after 96 hrs in presence of folic acid by Cell-Titer Blue assay.
Experiment [2] can be described thus: Inhibition of GARFTase in human KB cells expressing RFC/FRalpha/PCFT assessed as reduction in cell growth after 96 hrs by Cell-Titer Blue assay.

Some results are limits rather than exact numbers.

With `CC(=O)N(CCCc1cc2c(=O)[nH]c(N)nc2[nH]1)c1ccc(C(=O)N[C@@H](CCC(=O)O)C(=O)O)cc1`, the IC50 in experiment [1] is above 1000 nM; in experiment [2], 40 nM.

As for `Nc1nc2[nH]c(CCCOc3ccc(C(=O)N[C@@H](CCC(=O)O)C(=O)O)cc3)cc2c(=O)[nH]1`, the values for the IC50 in experiment [1] and in experiment [2] were above 1000 nM and 2.5 nM, respectively.

On to `Nc1nc2[nH]c(CCCN(C(=O)C(F)(F)F)c3ccc(C(=O)N[C@@H](CCC(=O)O)C(=O)O)cc3)cc2c(=O)[nH]1`, for which the IC50 in experiment [1] is above 1000 nM; in experiment [2], 5.4 nM.

Regarding `Nc1nc2[nH]c(CCNc3ccc(C(=O)N[C@@H](CCC(=O)O)C(=O)O)cc3)cc2c(=O)[nH]1`, the IC50 was found to be 666 nM in experiment [1] and 0.32 nM in experiment [2].

For the molecule `Nc1nc2[nH]c(CCCN(C=O)c3ccc(C(=O)N[C@@H](CCC(=O)O)C(=O)O)cc3)cc2c(=O)[nH]1`, the IC50 in experiment [1] was above 1000 nM; in experiment [2] it was 13 nM.

On to `Nc1nc2[nH]c(CCCNc3ccc(C(=O)N[C@@H](CCC(=O)O)C(=O)O)cc3)cc2c(=O)[nH]1`, for which the figures for the IC50 in experiment [1] and in experiment [2] were above 1000 nM and 0.95 nM, respectively.

Turning to `Nc1nc2[nH]c(CCCSc3ccc(C(=O)N[C@@H](CCC(=O)O)C(=O)O)cc3)cc2c(=O)[nH]1`, the IC50 in experiment [1] came out at 757 nM; in experiment [2] it was 0.3 nM.

A word on the IC50: it is the concentration that inhibits the measured activity by half.

These data come from BindingDB's records for doi:10.1016/j.bmc.2020.115544 (Duquesne University, 2020).
